From patent US12011444B2, “N-substituted indole derivatives as PGE2 receptor modulators” (Idorsia Pharmaceuticals Ltd, priority 2015, dated 2024)

Legend:
PTRGER4 (EP4) = PTRGER4 (EP4) (Homo sapiens (Human), UniProt P35408); assay: hEP4 b-arrestin assay (PathHunter HEK 293 PTGER4 b-arrestin cells); format: cell-based; conditions: antagonistic activity on hEP4; mean where measured multiple times
Outline: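 Antagonist mode: compound is given 15 min at 37 °C, then 20 nM (final) PGE2 for 120 min, in HEK293 cells stably expressing EP4 fused to ProLink and β-arrestin 2 fused to EA. Recruitment read as β-gal luminescence after 1 h reagent at room temperature, as percent of DMSO control.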

PTGER2 (EP2) = PTGER2 (EP2) (Homo sapiens (Human), UniProt P43116); assay: hEP2 b-arrestin assay (PathHunter HEK 293 PTGER2 b-arrestin cells); format: cell-based; conditions: antagonistic activity on hEP2; mean where measured multiple times
Sequence of PTGER2 (EP2) (P43116 whole entry): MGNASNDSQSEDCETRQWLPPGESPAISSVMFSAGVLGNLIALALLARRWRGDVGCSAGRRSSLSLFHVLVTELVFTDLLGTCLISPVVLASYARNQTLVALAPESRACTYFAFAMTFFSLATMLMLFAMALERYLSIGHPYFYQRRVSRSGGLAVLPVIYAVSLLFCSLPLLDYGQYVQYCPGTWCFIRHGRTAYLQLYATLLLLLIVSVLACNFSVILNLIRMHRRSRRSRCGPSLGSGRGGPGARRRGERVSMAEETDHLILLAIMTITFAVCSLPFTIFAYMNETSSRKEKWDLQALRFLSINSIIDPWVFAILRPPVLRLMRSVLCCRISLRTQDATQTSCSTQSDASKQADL
Outline: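 Readout is β-galactosidase complementation luminescence, expressed as percent of DMSO control (duplicates). PathHunter HEK293 EP2/β-arrestin 2 cells, grown 24 h, received compound for 15 min at 37 °C before a 120 min challenge with PGE2 at 5 μM final, followed by 1 h detection at room temperature.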

Sequence of PTRGER4 (EP4) (P35408 whole entry, looked up, the tested form may be a part): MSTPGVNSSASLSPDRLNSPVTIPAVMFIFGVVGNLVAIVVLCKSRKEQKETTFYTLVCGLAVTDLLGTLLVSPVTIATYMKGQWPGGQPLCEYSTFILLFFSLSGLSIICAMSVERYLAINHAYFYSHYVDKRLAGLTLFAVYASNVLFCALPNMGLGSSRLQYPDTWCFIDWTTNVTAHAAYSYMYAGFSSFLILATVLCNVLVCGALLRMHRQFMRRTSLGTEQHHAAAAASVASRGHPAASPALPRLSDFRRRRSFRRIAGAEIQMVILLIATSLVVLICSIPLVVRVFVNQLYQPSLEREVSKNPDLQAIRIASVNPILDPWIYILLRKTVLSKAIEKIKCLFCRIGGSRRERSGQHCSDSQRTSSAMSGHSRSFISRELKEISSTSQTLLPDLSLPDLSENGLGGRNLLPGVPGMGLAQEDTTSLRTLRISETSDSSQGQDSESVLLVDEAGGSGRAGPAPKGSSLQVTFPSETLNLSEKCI

Row | SMILES | IC50 (PTRGER4 (EP4)) [nM] | IC50 (PTGER2 (EP2)) [nM]
1 | CCN1Cc2cc(-c3cc(NCCn4c(C)cc5c(C)ccc(F)c54)ncn3)ccc2C1=O [compound 206] | 740 | 88
2 | COc1ccc(F)c2c1cc(C)n2CCNc1cc(-c2ccc(-c3nnc[nH]3)cc2)ncn1 [compound 208, [2-(7-Fluoro-4-methoxy-2-methyl-indol-1-yl)-ethyl]-{6-[4-(4H-[1,2,4]triazol-3-yl)-phenyl]-pyrimidin-4-yl}-amine] | 102 | 11
3 | CNc1cc(-c2cc(NCCn3c(C)cc4c(C)cc(F)cc43)ncn2)ccc1C(=O)O [compound 209] | 123 | 3
4 | CCOc1cc(-c2cc(NCCn3c(C)cc4c(C)cc(F)c(Cl)c43)ncn2)ccc1C(=O)O [compound 210] | 991 | 472
5 | CNc1cc(-c2cc(NCCn3c(C)cc4c(F)ccc(C)c43)ncn2)ccc1C(=O)O [compound 211] | 394 | 2
6 | CCNc1cc(-c2cc(NCCn3c(C)cc4c(Cl)cccc43)ncn2)ccc1C(=O)O [compound 212] | 173 | 1
7 | CNc1cc(-c2cc(NCCn3c(C)cc4c(OC)cccc43)ncn2)ccc1C(=O)O [compound 213] | 204 | 3
8 | COc1c(-c2cc(NCCn3c(C)cc4c(OC)ccc(F)c43)ncn2)csc1C(=O)O [compound 215] | 972 | 139
9 | CCOc1cc(-c2cc(NCCn3c(C)cc4c(OC)cccc43)ncn2)sc1C(=O)O [compound 216] | 22 | 2
10 | CSc1cc(-c2cc(NCCn3c(C)cc4c(C)ccc(Cl)c43)ncn2)ccc1C(=O)O [compound 217] | 381 | 25
11 | Cc1cc(-c2cc(NCCn3c(C)cc4c(C)ccc(F)c43)ncn2)cc(F)c1C(=O)O [compound 218] | 519 | 18
12 | CCc1cc(-c2cc(NCCn3c(C)cc4c(C)cc(F)cc43)ncn2)ccc1C(=O)O [compound 219] | 454 | 41
13 | CCc1cc(-c2cc(NCCn3c(C)cc4c(C)ccc(F)c43)ncn2)ccc1C(=O)O [compound 220] | 216 | 18
14 | CSc1cc(-c2cc(NCCn3c(C)cc4c(Cl)ccc(Cl)c43)ncn2)ccc1C(=O)O [compound 221] | 902 | 9
15 | Cc1ccc(F)c2c1cc(C)n2CCNc1cc(-c2cc(Cl)c(C(=O)O)c(Cl)c2)ncn1 [compound 222] | 232 | 42
16 | CCc1cc(-c2cc(NCCn3c(C)cc4c(OC)cccc43)ncn2)ccc1C(=O)O [compound 223] | 702 | 8

Row | SMILES | IC50 (PTRGER4 (EP4)) [nM] | IC50 (PTGER2 (EP2)) [nM]
17 | CCc1cc(-c2cc(NCCn3c(C)cc4c(OC)ccc(Cl)c43)ncn2)sc1C(=O)O [compound 225] | 124 | 25
18 | CCc1cc(-c2cc(NCCn3c(C)cc4c(OC)ccc(F)c43)ncn2)sc1C(=O)O [compound 230] | 13 | 5
19 | COc1cc(-c2cc(NCCn3c(C)cc4c(C)cc(F)cc43)ncn2)ccc1C(=O)O [compound 232] | 732 | 21
20 | COc1ccc(F)c2c1cc(C)n2CCNc1cc(-c2ccc(C(=O)O)c(C)c2)ncn1 [compound 233] | 317 | 52
21 | CCOc1cc(-c2cc(NCCn3c(C)cc4c(Cl)cccc43)ncn2)ccc1C(=O)O [compound 234] | 249 | 3
22 | CCNc1cc(-c2cc(NCCn3c(C)cc4c(F)ccc(F)c43)ncn2)ccc1C(=O)O [compound 243] | 281 | 2
23 | CCNc1cc(-c2cc(NCCn3c(C)cc4c(C)cc(F)cc43)ncn2)ccc1C(=O)O [compound 244] | 86 | 2
24 | CCNc1cc(-c2cc(NCCn3c(C)cc4c(C)ccc(F)c43)ncn2)ccc1C(=O)O [compound 245] | 71 | 9
25 | CCNc1cc(-c2cc(NCCn3c(C)cc4c(F)ccc(C)c43)ncn2)ccc1C(=O)O [compound 246] | 507 | 2
26 | CCNc1cc(-c2cc(NCCn3c(C)cc4cccc(OC)c43)ncn2)ccc1C(=O)O [compound 247] | 681 | 32
27 | CNc1cc(-c2cc(NCCn3c(C)cc4c(OC)ccc(Cl)c43)ncn2)ccc1C(=O)O [compound 250] | 103 | 3
28 | CNc1cc(-c2cc(NCCn3c(C)cc4c(OC)ccc(F)c43)ncn2)ccc1C(=O)O [compound 251] | 37 | 6
29 | CNc1cc(-c2cc(NCCn3c(C)cc4c(F)ccc(OC)c43)ncn2)ccc1C(=O)O [compound 252] | 660 | 57
30 | COc1cc(-c2cc(NCCn3c(C)cc4c(OC)cccc43)ncn2)cc(C)c1C(=O)O [compound 254] | 999 | 64
31 | CCOc1cc(-c2cc(NCCn3c(C)cc4ccc(OC)cc43)ncn2)ccc1C(=O)O [compound 255] | 896 | 12

Second part, the compound after the results:

Row | IC50 (PTRGER4 (EP4)) [nM] | IC50 (PTGER2 (EP2)) [nM] | SMILES
32 | 20 | 4 | CCOc1cc(-c2cc(NCCn3c(C)cc4c(C)cc(Cl)cc43)ncn2)sc1C(=O)O [compound 224]
33 | 22 | 2 | CCOc1cc(-c2cc(NCCn3c(C)cc4c(C)ccc(F)c43)ncn2)sc1C(=O)O [compound 227]
34 | 35 | 4 | CCOc1cc(-c2cc(NCCn3c(C)cc4cc(C)cc(F)c43)ncn2)sc1C(=O)O [compound 228]
35 | 26 | 2 | CCOc1cc(-c2cc(NCCn3c(C)cc4c(C)cc(F)cc43)ncn2)sc1C(=O)O [compound 229]
36 | 133 | 185 | CCc1cc(-c2cc(NCCn3c(C)cc4cc(OC)cc(F)c43)ncn2)sc1C(=O)O [compound 231]
37 | 60 | 2 | CCOc1cc(-c2cc(NCCn3c(C)cc4c(F)c(F)ccc43)ncn2)sc1C(=O)O [compound 235]
38 | 413 | 9 | CCOc1cc(-c2cc(NCCn3c(C)cc4ccc(Cl)c(Cl)c43)ncn2)sc1C(=O)O [compound 236]
39 | 68 | 13 | CCOc1cc(-c2cc(NCCn3c(C)cc4cc(Cl)cc(F)c43)ncn2)sc1C(=O)O [compound 237]
40 | 40 | 5 | CCOc1cc(-c2cc(NCCn3c(C)cc4c(Cl)cc(Cl)cc43)ncn2)sc1C(=O)O [compound 238]
41 | 19 | 1 | CCOc1cc(-c2cc(NCCn3c(C)cc4c(Cl)cc(F)cc43)ncn2)sc1C(=O)O [compound 239]
42 | 10 | 2 | CCOc1cc(-c2cc(NCCn3c(C)cc4c(Cl)ccc(F)c43)ncn2)sc1C(=O)O [compound 240]
43 | 128 | 32 | CCc1cc(-c2cc(NCCn3c(C)cc4cc(C)cc(F)c43)ncn2)sc1C(=O)O [compound 241]
44 | 216 | 111 | CCc1cc(-c2cc(NCCn3c(C)cc4cc(Cl)cc(F)c43)ncn2)sc1C(=O)O [compound 242]
45 | 9 | 3 | CCOc1cc(-c2cc(NCCn3c(C#N)cc4c(C)cc(F)cc43)ncn2)sc1C(=O)O [compound 249]
46 | 29 | 3 | CCOc1cc(-c2cc(NCCn3c(C)cc4c(OC)ccc(Cl)c43)ncn2)sc1C(=O)O [compound 256]
47 | 6 | 2 | CCOc1cc(-c2cc(NCCn3c(C)cc4c(OC)cc(F)cc43)ncn2)sc1C(=O)O [compound 257]
